Legend:
Test in all cases: relative viability (nuclei count vs DMSO), 5 days (fraction); higher = more cells survive
YM155 + Vorinostat = compound: COCC[n+]1c2c(n(Cc3cnccn3)c1C)C(=O)c1ccccc1C2=O [YM155] + O=C(CCCCCCC(=O)Nc1ccccc1)NO [Vorinostat] (partner 1 µM)
Method in brief: (§1)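 Relative viability was taken as the ratio of nuclei in treated wells to nuclei in vehicle wells. Lung cancer cell lines in 1536-well plates received compounds by pin tool one day after seeding, either one drug alone or a fixed anchor-drug dose plus five library-drug doses (not always all listed) in √10 steps. Nuclei were counted on 4× images after 5 days of treatment, and values are medians of duplicate plates.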

YM155 + Bortezomib = compound: COCC[n+]1c2c(n(Cc3cnccn3)c1C)C(=O)c1ccccc1C2=O [YM155] + CC(C)C[C@H](NC(=O)[C@H](Cc1ccccc1)NC(=O)c1cnccn1)B(O)O [Bortezomib] (partner 0.002 µM)
Method in brief: as §1

Quizartinib + Crizotinib = compound: CC(C)(C)c1cc(NC(=O)Nc2ccc(-c3cn4c(n3)sc3cc(OCCN5CCOCC5)ccc34)cc2)no1 [Quizartinib] + C[C@@H](Oc1cc(-c2cnn(C3CCNCC3)c2)cnc1N)c1c(Cl)ccc(F)c1Cl [Crizotinib] (partner 1 µM)
Method in brief: as §1

[1] = compound: CC(C)(C)c1cc(NC(=O)Nc2ccc(-c3cn4c(n3)sc3cc(OCCN5CCOCC5)ccc34)cc2)no1 [Quizartinib] + CC(=O)c1c(C)c2cnc(Nc3ccc(N4CCNCC4)cn3)nc2n(C2CCCC2)c1=O [Palbociclib] (partner 0.5 µM)
Method in brief: as §1

Row | Cell Line | relative viability (YM155 + Vorinostat; first compound 0.002 µM) | relative viability (YM155 + Vorinostat; first compound 0.006325 µM) | relative viability (YM155 + Vorinostat; first compound 0.02 µM) | relative viability (YM155 + Vorinostat; first compound 0.06325 µM) | relative viability (YM155 + Bortezomib; first compound 0.002 µM) | relative viability (YM155 + Bortezomib; first compound 0.006325 µM) | relative viability (YM155 + Bortezomib; first compound 0.02 µM) | relative viability (YM155 + Bortezomib; first compound 0.06325 µM) | relative viability (Quizartinib + Crizotinib; first compound 0.001 µM) | relative viability (Quizartinib + Crizotinib; first compound 0.003162 µM) | relative viability (Quizartinib + Crizotinib; first compound 0.01 µM) | relative viability (Quizartinib + Crizotinib; first compound 0.03162 µM) | relative viability (Quizartinib + Crizotinib; first compound 0.1 µM) | relative viability ([1]; first compound 0.001 µM) | relative viability ([1]; first compound 0.003162 µM) | relative viability ([1]; first compound 0.01 µM) | relative viability ([1]; first compound 0.03162 µM) | relative viability ([1]; first compound 0.1 µM)
1 | NCI-H1975 | 0.661 | 0.667 | 0.641 | 0.442 | 0.335 | 0.43 | 0.444 | 0.272 | 1.02 | 0.929 | 0.922 | 0.986 | 1.09 | 0.588 | 0.605 | 0.599 | 0.552 | 0.538
2 | NCI-H2023 | 0.738 | 0.817 | 0.792 | 0.171 | 0.984 | 1.01 | 1.17 | 0.893 | 0.648 | 0.57 | 0.799 | 0.246 | 0.543 | 0.298 | 0.312 | 0.467 | – | 0.279
3 | COR-L 105 | 0.77 | 0.875 | 0.905 | 0.541 | 0.682 | 0.81 | 0.958 | 0.786 | 0.788 | 0.734 | 0.669 | 0.49 | 0.902 | 0.395 | 0.397 | 0.396 | – | 0.418
4 | NCI-H23 | – | 0.555 | 0.626 | 0.544 | 0.7 | 1.05 | 0.929 | 0.455 | – | 0.478 | 0.514 | 0.483 | 0.486 | 0.425 | 0.543 | 0.548 | 0.453 | 0.396
5 | ChaGo-K-1 | 0.772 | 0.744 | 0.787 | 0.747 | 1.02 | 1.01 | 0.927 | 0.956 | 1.1 | 1.06 | 1.23 | – | 1.19 | – | 0.922 | 0.918 | 0.949 | 0.904
6 | NCI-H441 | 0.741 | 0.716 | 0.741 | 0.268 | 0.452 | 0.407 | 0.466 | 0.446 | 0.527 | 0.624 | 0.896 | 0.673 | 0.969 | 0.191 | 0.222 | 0.169 | 0.191 | 0.219
